Data from patent publication US20210308286A1 (The Johns Hopkins University, priority 2018, published 2021).
Like-named read-outs stand apart in the source and are kept apart here. Non-standard residues stand in square brackets, D forms with d. Residues, ends and D or L forms follow the SMILES beside them. ξ: configuration not given here. *: point of attachment. X1 = C=Cc1c(C)c2cc3nc(c4c5[nH]c(cc6nc(cc1[nH]2)C(C)=C6CC)c(C)c5C(=O)C4)[C@@H](CCC(=O)*)[C@H]3C; X2 = O=C(O)CC[C@H](NC(=O)N[C@@H](CCCCNC(=O)CCCCCCC(=O)*)C(=O)O)C(=O)O; ξE = NC(CCC(=O)O)C(=O)O; ξD = NC(CC(=O)O)C(=O)O; ξK = NCCCCC(N)C(=O)O; ξV = CC(C)C(N)C(=O)O; ξS = NC(CO)C(=O)O

Legend:
[1] = system: PSMA+ PC3 PIP and PSMA− PC3 flu subcutaneous tumors; conditions: 20 nmol intravenous; for tumor accumulation, whole-animal in vivo fluorescence imaging: 24 hours post-administration; for ex vivo organ distribution / clearance route: 24 hours, ex vivo fluorescence
[2] = target: T1, PSMA (Homo sapiens, UniProt Q04609); test: biochemical
T1 construct: The amount of glutamate released from NAAG hydrolysis by the LNCaP lysates was determined; endogenous in cells; host or cells: LNCaP cell lysate
Target sequence in this assay (Q04609 whole entry, looked up): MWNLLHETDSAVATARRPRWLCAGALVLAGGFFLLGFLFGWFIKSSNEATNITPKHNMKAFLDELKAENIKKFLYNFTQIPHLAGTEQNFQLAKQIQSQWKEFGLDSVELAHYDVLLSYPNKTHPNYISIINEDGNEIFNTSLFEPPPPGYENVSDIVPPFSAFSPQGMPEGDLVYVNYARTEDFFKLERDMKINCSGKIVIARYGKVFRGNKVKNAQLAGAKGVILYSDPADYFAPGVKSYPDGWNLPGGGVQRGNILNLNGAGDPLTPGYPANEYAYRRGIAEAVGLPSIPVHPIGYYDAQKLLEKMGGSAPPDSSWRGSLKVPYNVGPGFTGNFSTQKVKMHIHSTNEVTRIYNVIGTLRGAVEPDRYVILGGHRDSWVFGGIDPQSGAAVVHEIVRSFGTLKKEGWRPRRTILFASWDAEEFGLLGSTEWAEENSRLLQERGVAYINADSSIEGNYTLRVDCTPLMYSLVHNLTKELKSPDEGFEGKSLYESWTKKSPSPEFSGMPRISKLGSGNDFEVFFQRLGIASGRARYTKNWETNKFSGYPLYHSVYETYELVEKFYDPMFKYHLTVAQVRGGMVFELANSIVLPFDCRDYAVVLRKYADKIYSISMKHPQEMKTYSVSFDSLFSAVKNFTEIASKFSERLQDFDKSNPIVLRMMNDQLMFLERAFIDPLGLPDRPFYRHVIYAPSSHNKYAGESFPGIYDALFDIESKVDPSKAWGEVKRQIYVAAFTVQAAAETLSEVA

[3] = system: PSMA+ PC3 PIP subcutaneous tumor
[4] = system: PSMA+ PC3 PIP cells; type: cell-based; conditions: flow cytometry, time-dependent
[5] = Plasma blood clearance (pharmacokinetics) after intravenous injection; type: in vivo, BALB/c mice; conditions: for half-life: BALB/c, 20 nmol per animal, 20 nmol intravenous, plasma fluorescence over 48 hours, n=5
[6] = system: PSMA+ PC3 PIP tumor; test: In vivo PSMA inhibition with excess […], ex vivo tumor fluorescence; parameters: species or system athymic male nude mice; conditions: 15 nmol LC-Pyro intravenous, 24 hours post-injection
[7] = system: PSMA+ PC3 PIP orthotopic prostate tumor; test: ^64Cu-LC-Pyro PET/CT and gamma-counting biodistribution, PSMA+ orthotopic model; conditions: PSMA+ PC3 PIP orthotopic tumor mice, 24 hours post-injection, mean ± SD, n=4
Description: Organs of interest, including the tumor, prostate, seminal vesicles, testes, heart, spleen, lungs, liver, kidneys, adrenal, stomach, small intestine, large intestine, skin, fat, muscle, bone and brain were excised, washed in saline, dried with absorbent tissue, weighed, and counted on a gamma-counter Wizard® 1480 well-type automatic gamma counter (PerkinElmer Inc.; Shelton, Conn.). Radioactivity measured in each organ was decay-corrected and expressed as the percentage of the injected dose per gram of tissue (% ID/g).

[8] = target: T1, PSMA; test: Fluorescence-based PSMA inhibition assay (NAAG hydrolysis by LNCaP cell lysates, Amplex Red); type: biochemical; conditions: 4 μM NAAG, Cheng-Prusoff conversion, n=3
Method: Briefly, lysates of LNCaP cells (25 μL in 0.1 M Tris-HCl, pH 8.0) were incubated with the serial dilutions of the test compounds (in 12.5 μL of 0.1 M Tris-HCl, pH 8.0) in the presence of 4 μM N-acetylaspartylglutamate (NAAG) (in 12.5 μL of 0.1 M Tris-HCl, pH 8.0) for 120 minutes. The reaction mixtures were incubated with the working solution (50 μL) of the Amplex Red Glutamic Acid Kit (Molecular Probes Inc., Eugene, Oreg.) for 60 minutes. The amount of glutamate released from NAAG hydrolysis by the LNCaP lysates was determined by measuring the fluorescence generated from the reactions using the Cytation 5 plate reader (BioTek, Winooski, Vt.) with excitation at 545 nm and emission at 590 nm. […] Enzyme inhibitory constants (Ki values) were generated using the Cheng-Prusoff conversion. […] Data analysis was performed using GraphPad Prism software (n=3).
Target sequence in this assay (Q04609 whole entry): as the sequence (Q04609 whole entry, looked up) above

[9] = system: PSMA+ (PC3-ML-1124) and PSMA− (PC3-ML-1117) metastatic nodules; test: Fluorescence detection of prostate metastasis; type: in vivo, mice; conditions: 20 nmol via tail vein, 24 hours post-injection
[10] = system: low-risk, localized prostate cancer; conditions: vascular targeted PDT, cited from earlier work
[11] = LC-Pyro+Laser group, 24 hours post-PDT

In the case of `C=Cc1c(C)c2cc3nc(c4c5[nH]c(cc6nc(cc1[nH]2)C(C)=C6CC)c(C)c5C(=O)C4)[C@@H](CCC(=O)NCC(=O)NC(CC(=O)O)C(=O)NC(CCC(=O)O)C(=O)NC(C(=O)NC(CC(=O)O)C(=O)NCC(=O)NC(CO)C(=O)NCC(=O)NC(CCCCNC(=O)CCCCCCC(=O)NCCCC[C@H](NC(=O)N[C@@H](CCC(=O)O)C(=O)O)C(=O)O)C(N)=O)C(C)C)[C@H]3C` (some centres unmarked) [LC-Pyro] (X1-G[ξD][ξE][ξV][ξD]G[ξS]G[ξK](X2)-NH2; N-terminus and C-terminus assumed), the “tumor accumulation, whole-animal in vivo fluorescence imaging” value [1] is reported as “selective accumulation to the PSMA+ after 24 hours”, the “ex vivo organ distribution / clearance route” value [1] is reported as “liver and kidney clearance” and the Ki [2] is reported as 0.088 nM. For the same compound, the “therapeutic effect without laser exposure” value ([3]; LC-Pyro only, 50 nmol intravenous) was “No therapeutic effect”, the “skin phototoxicity upon daylight exposure” value ([3]; LC-Pyro with no laser treatment, 50 nmol intravenous) was “no sign of skin phototoxicity” and the body weight ([3]; LC-Pyro+Laser group) was “no decrease in body weight”. For the same compound, the “H&E staining of tumor sections” value [3, 11] was “significant damage of tissue architecture”, the “TUNEL staining of tumor sections” value [3, 11] was “significant cell death” and the “tumor regrowth after day 22” value ([3]; LC-Pyro+Laser group, n=4) was “tumor regrowth was observed in two animals”. The “residual or recurrent disease 44 days post-PDT” value ([3]; LC-Pyro+Laser group, the two remaining animals) was “no signs of residual or recurrent disease”, the tumor growth ([3]; LC-Pyro+Laser: 30 nmol intravenous, 671-nm laser 100 J/cm^2 at 6 hours, single dose, n=4) was “significant tumor growth inhibition” and the “selectivity of uptake in PSMA+ PC3 PIP vs PSMA− PC3 flu cells” value [4] was “nonselective cell-penetrating properties”. For the same compound, the “plasma circulation time, fold longer than SC-Pyro (single lysine linker analog)” value ([5]; BALB/c mice, intravenous) was 8.5 fold, the half-life ([5]; mouse, in vivo, iv, read-out: t1/2, fast (plasma, two-compartment model) (converted)) was 0.5 h and the half-life ([5]; mouse, in vivo, iv, read-out: t1/2, slow (plasma half-life, two-compartment model) (converted)) was 10 h. The “accumulation in excised PSMA+ PC3 PIP tumors with DCIBzL (PSMA blocker) injected 30 minutes beforehand” value [6] was “less accumulation”, the “biodistribution, Tumor” value [7] was 9.74 % ID/g and the “Ki inhibitory activity against PSMA” value [8] was “sub-nanomolar”. For the same compound, the “uptake in metastatic nodules, in situ fluorescence imaging” value [9] was “selective uptake”.

For `C=Cc1c(C)c2cc3nc(c4c5[nH]c(cc6nc(cc1[nH]2)C(C)=C6CC)c(C)c5C(=O)C4)[C@@H](CCC(=O)N[C@H](CCCCNC(=O)CCCCCCC(=O)NCCCC[C@H](NC(=O)N[C@@H](CCC(=O)O)C(=O)O)C(=O)O)C(N)=O)[C@@H]3C` [SC-Pyro], the “tumor accumulation, whole-animal in vivo fluorescence imaging” value [1] was “negligible accumulation within both the PSMA− and PSMA+ tumors”, the “ex vivo organ distribution / clearance route” value [1] was “metabolized and collected in the gallbladder” and the “t1/2, slow (plasma half-life, two-compartment model)” value ([5]; mouse, in vivo, iv) was 1.17 h. The “Ki inhibitory activity against PSMA” value [8] was “sub-nanomolar”.

Compound `C=Cc1c(C)c2cc3nc(c4c5[nH]c(cc6nc(cc1[nH]2)C(C)=C6CC)c(C)c5C(=O)C4)[C@@H](CCC(=O)N[C@H](CCCCNC(=O)CCCCCCC(=O)NCCCC[C@H](NC(=O)N[C@@H](CCC(=O)O)C(=O)O)C(=O)O)C(N)=O)[C@H]3C` [SC-Pyro] has a Ki [2] of 0.2 nM.

For `CC[C@H]1c2cc3[n-]c(c(CC(=O)OC)c4nc(cc5[n-]c(cc(n2)[C@@H]1C)c(C(C)=O)c5C)[C@@H](C)[C@@H]4CCC(=O)[O-])c(C(=O)NCCS(=O)(=O)[O-])c3C.[H+].[H+].[Pd+2]` [padeliporfin], the “patients with disease-free biopsy” value ([10]; 28% with standard-of-care) is listed as 49% and the “percentage of patients with progressive disease” value ([10]; 58% with standard-of-care) is listed as 28%.
